Consider three molecules from US10064876B2, “Bile acid receptor agonism for treating addiction” (Vanderbilt University, priority 2015, dated 2018).

Entries after “also recorded” stand apart in the source; their conditions may differ.

In series [1] the test system is Lipoprotein lipase (Lpl). Description: hepatic gene expression by RNA-seq. The conditions noted are these: liver. The format is in vivo, mouse. On the procedure:
The transcriptional sequencing was implemented with modifications of the standard Illumina methods (Bentley, D. R. et al. Nature 456, 53-59 (2008)). Sequencing reactions were performed using the Illumina HiSeq (v3 chemistry). Initial QC quantification of the extracted total RNA was done by using Qubit Fluorometer (Invitrogen). Agilent 2100 Bioanalyzer was used to check the quality of the extracted RNA from both the samples. About 30 ng of total RNA was amplified using the NuGEN Technologies Ovation RNA amplification kit optimized for RNA sequencing. The output is double-stranded complementary DNA (cDNA) that was sheared using the Covaris instrument to an average insert size of 300 bp. The sheared DNA entered the standard Illumina TruSeq library preparation protocol at the standard end-repair step. […] Following LM-PCR, the samples were purified and assessed for quality using the Agilent Bioanalyzer. Final quantitation was performed using the KAPA Biosystems Kapa Library Quant kit. […]
Multiple stages of quality control (QC) on sequencing data was carried out. […] Raw data were aligned with TopHat 2 against mouse MM10 genome, and read count data were obtained using HTSeq, DESeq (Anders, S. & Huber, W. Genome Biol. 11, R106 (2010)), edgeR (Robinson, M. D., et al. Bioinformatics 26, 139-140 (2010)) and baySeq (Hardcastle, T. J. & Kelly, K. A. BMC Bioinformatics 11, 422 (2010)). […]

The test system of series [2] is C57BL/6J mice. Description: cocaine conditioned place preference (CPP) in mice under chronic OCA. Conditions: OCA 10 mg/kg orally six days a week for four weeks vs vehicle, CPP started after 2 weeks, cocaine 20 mg/kg i.p. Type of series: in vivo, mouse. On the procedure:
CPP was performed as previously described, with modifications (Graham D L, et al. (2013). Mol Psychiatry. 18(9):961-962). Briefly, mice were weighed and then acclimated to the testing room for at least 20 minutes prior to testing each day. During the first phase (pre-conditioning, day 1), mice were placed on the grid floor side of a two chamber apparatus. For 30 min, the mice had free access to both sides of the apparatus, which each contained their own distinct visual and tactile cues. During the second phase (conditioning, days 2-9), on alternate days mice were restricted to one side or the other of the apparatus for 30 min by use of a dividing door. […] During this time, the mouse's locomotor activity was measured by infrared sensors and used to determine cocaine-induced locomotor sensitization. […] Thus mice were given full access to both compartments and their time spent on each side was measured. % CPP was calculated as the time spent on the cocaine-paired side between post-conditioning minus the time spent on the cocaine-paired side during pre-conditioning divided by the time spent on the saline-paired side during pre-conditioning. […] Locomotor sensitization to cocaine was determined by the ambulatory distance on days when mice received cocaine during the conditioning phase of CPP. […]

Series [3] deals with C57BL/6J mice. Description: cocaine-induced locomotion in OCA-treated mice. Conditions: OCA 10 mg/kg orally, chronic, vs vehicle. The format is in vivo, mouse. The procedure: CPP was performed as previously described, with modifications (Graham D L, et al. (2013). Mol Psychiatry. 18(9):961-962). Briefly, mice were weighed and then acclimated to the testing room for at least 20 minutes prior to testing each day. During the first phase (pre-conditioning, day 1), mice were placed on the grid floor side of a two chamber apparatus. For 30 min, the mice had free access to both sides of the apparatus, which each contained their own distinct visual and tactile cues. During the second phase (conditioning, days 2-9), on alternate days mice were restricted to one side or the other of the apparatus for 30 min by use of a dividing door. Just prior to being placed in the chamber, each mouse was given an injection of either cocaine (20 mg/kg, i.p.) or saline (i.p.). […] Only the first 20 minutes of pre-conditioning and post-conditioning was used in the calculation of % CPP. […] Following 20 minutes of acclimation to the testing room, mice were initially placed in open field chambers for 60 min and ambulatory distance was recorded. […] Finally, mice were removed again and injected with cocaine (20 mg/kg, i.p.) before being placed back in the chamber for an additional 120 minutes. […] Jellies were composed of gelatin (10% w/v), sucralose (18.5% w/v), artificial strawberry flavoring (8% v/v); beta cyclodextrin (2% w/v) in water. […]

For series [4] the following is noted: phase III clinical trial, hepatic steatosis; cited from earlier work.
Series [5] in a line: body weight during chronic OCA treatment. The format is in vivo, mouse. Conditions: OCA 10 mg/kg orally vs vehicle, throughout the 4-week study. The text has this: Jellies were composed of gelatin (10% w/v), sucralose (18.5% w/v), artificial strawberry flavoring (8% v/v); beta cyclodextrin (2% w/v) in water. […] Jellies containing vehicle contained the same amount of beta cyclodextrin. Mice were given jellies by voluntary oral administration six days per week for four weeks. They were given the jellies between 3 pm and 6 pm by placing each mouse into an open field chamber containing the jelly. To ensure that mice consumed the jellies consistently, all mice were initially trained to eat jellies without drug for 5 days prior to drug/vehicle jelly administration. Mice in this group underwent behavioral testing for cocaine conditioned place preference after 2 weeks of chronic drug administration. During this time, drug administrations were continued until sacrifice.

For series [6], the system named is AMPA receptor-mediated excitatory post-synaptic currents (EPSCs) in NAc medium spiny neurons. Description: whole-cell electrophysiology, EPSC amplitude in ex vivo brain slices. Type of series: cell-based, mouse. The conditions noted are these: 10 μM OCA (FIG. 29B legend), perfused 10 min, holding at −70 mV, 50 μM picrotoxin. On the procedure: Ex vivo mouse sagittal brain slices were prepared as previously described (Grueter, B. A., et al. Nat Neurosci 13:1519-1525 (2010)). Briefly, mice were acutely anesthetized using isoflurane and sacrificed by rapid decapitation. Brains were submerged in ice-cold sucrose dissecting solution (80 mM NaCl, 2.5 mM KCl, 7 mM MgCl2, 0.5 mM CaCl2, 1.25 mM NaH2PO4, 25 mM NaHCO3, 75 mM sucrose, and 25 mM glucose) and 250 μm thick slices were cut using the Leica 200VT Vibratome. Slices were allowed to recover for 10-15 min at 35° C. in an N-methyl D-glucamine (NMDG) based recovery solution (2.5 mM KCl, 20 mM HEPES, 1.2 mM NaH2PO4, 25 mM glucose, 93 mM NMDG, 30 mM NaHCO3, 5 mM sodium ascorbate, 3 mM sodium pyruvate, 10 mM MgSO4, and 0.5 mM CaCl2) before being transferred to a room temperature ACSF holding chamber for one hour prior to use. ASCF used for holding chamber and recordings contained 120 mM NaCl, 2.5 mM KCL, 1.5 mM MgCl2, 2.5 mM CaCl2, 1 mM NaH2PO4, 25 mM NaHCO3, and 10 mM glucose. […] Evoked responses were elicited by electrical stimulation via the Iso-flex stimulation isolator and recorded using the Axopatch Multiclamp 700B amplifier and Axon Digidata 1550 low-noise data acquisition digitizer. […] Peak EPSC amplitude was measured for the duration of the experiment and normalized to the first 10 min. […]

Series [7] relates to FXR. Conditions: Sayin 2013; Li 2013; cited from earlier work.

In the case of `COC(=O)/C=C/c1cccc(N(Cc2ccc(-c3ccc(N(C)C)cc3)cc2)C(=O)C2CCCCC2)c1` [fexaramine], in series [1], the “Lpl hepatic expression, increase relative to DIO controls” value amounted to 2.4 fold.
For `CC[C@H]1[C@@H](O)[C@@H]2[C@H](CC[C@]3(C)[C@@H]([C@H](C)CCC(=O)O)CC[C@@H]23)[C@@]2(C)CC[C@@H](O)C[C@@H]12` [OCA, (4R)-4-[(3R,5S,6R,7R,8S,9S,10S,13R,14S,17R)-6-Ethyl-3,7-dihydroxy-10,13-dimethyl-2,3,4,5,6,7,8,9,11,12,14,15,16,17-tetradecahydro-1H-cyclopenta[a]phenanthren-17-yl]pentanoic acid], the “cocaine CPP (preference for the cocaine-paired chamber, % CPP)” value in series [2] was “decreased; also recorded: reduced preference”. In addition, the “cocaine CPP (preference for the cocaine-paired chamber, % CPP)” value in series [2] (listed as 6-ECDCA) is “significantly reduced”. For the same molecule, the cocaine-induced locomotion result in series [3] is given as “impaired”. Further, in series [4], the clinical efficacy result is “clinical efficacy” and the safety profile entry was “excellent safety profile”. The body weight entry in series [5] is “No differences”. The “EPSC amplitude in NAc medium spiny neurons” value in series [6] is reported as “robust depression; also recorded: reduced”.
For the molecule `C[C@H](CCC(=O)NCCS(=O)(=O)O)[C@H]1CC[C@H]2[C@@H]3[C@@H](O)[C@@H](O)[C@@H]4C[C@H](O)CC[C@]4(C)[C@H]3CC[C@]12C` [TβMCA, 5β-cholanic acid-3α,6β,7β-triol-N-[2-sulphoethyl]-amide], the FXR antagonist activity entry in series [7] is reported as “potent FXR antagonist”.
